Measurements from paper PMC2225441, “Partial Restoration of Mutant Enzyme Homeostasis in Three Distinct Lysosomal Storage Disease Cell Lines by Altering Calcium Homeostasis” (PLoS Biology, 2008).

Columns and labels:
[1] = system: L444P GC; experiment: intact cell GC activity assay in homozygous L444P GC patient-derived fibroblasts; assay type: cell-based, human; conditions: for L444P GC activity, screen of VGCC blockers, ionotropic glutamate receptor inhibitors and other calcium channel blockers: intact cell GC activity assay, only the named compounds increased activity; for L444P GC activity, screen of fifteen thermosensitive TRP channel modulators: intact cell GC enzyme assay, 5-d incubation, Figure S1, only the named compound increased activity; for maximum increase in L444P GC activity: 30 μM; for effect on L444P GC activity: 0.3–100 μM
[2] = system: Ca^2+ channel; conditions: previously reported; read-out: Ca^2+ channel blocker IC50; cited from earlier work
[3] = system: L444P fibroblasts; experiment: cytotoxicity to L444P fibroblasts; assay type: cell-based, human; conditions: high concentrations (>10 μM)
[4] = system: ΔF508 CFTR; conditions: SERCA inhibitor; cited from earlier work
[5] = 7 d, intact cell assay, Figure 3D

| Compound | L444P GC activity, screen of VGCC blockers, ionotropic glutamate receptor inhibitors and other calcium channel blockers [1] | L444P GC activity, screen of fifteen thermosensitive TRP channel modulators [1] | other results |
| --- | --- | --- | --- |
| O=C(O)c1cc(=O)c2c(Cl)cc(Cl)cc2[nH]1 [5,7-dichlorokynurenic acid] | only diltiazem and verapamil |  |  |
| CCOC(=O)C(N)/C=C(\C)CP(=O)(O)O (stereo not shown) [CGP 39551] | only diltiazem and verapamil |  |  |
| NCCOB(c1ccccc1)c1ccccc1 [Compound 2-APB, 2-APB] |  | Only ruthenium red notably increased |  |
| COc1ccc([C@@H]2Sc3ccccc3N(CCN(C)C)C(=O)[C@@H]2O)cc1 [Compound 2] |  |  | maximum increase of L444P lysosomal GC activity ([1]; 10 μM, 7 d, intact cell assay, Figure 3D): 2.1 fold |
| CN(C)CCN1C(=O)[C@H](O)[C@H](c2ccc(O)cc2)Sc2ccccc21 [Compound 3] |  |  | maximum increase in L444P GC activity [1, 5]: 1.3 fold; IC50 [2]: 45.5 µM |
| CNCCN1C(=O)[C@H](O)[C@H](c2ccc(O)cc2)Sc2ccccc21 [Compound 4] |  |  | maximum increase in L444P GC activity [1, 5]: 1.2 fold; IC50 [2]: 127 µM |
| CCCCCCCCCC(=O)O[C@@H]1[C@@H](C)[C@@]2(O)[C@@H](C=C(CO)C[C@@]3(O)C(=O)C(C)=C[C@@H]23)[C@@H]2C(C)(C)[C@]12OC(=O)CCCCCCCCC [Compound 4α-PDD, 4α-PDD] |  | Only ruthenium red notably increased |  |
| COc1ccc([C@@H]2Sc3ccccc3NC(=O)[C@@H]2OC(C)=O)cc1 [Compound 5] |  |  | effect on L444P GC activity [1, 5]: do not increase L444P GC activity; toxicity to L444P fibroblasts [3]: toxic |
| COc1ccc([C@@H]2Sc3ccccc3NC(=O)[C@@H]2O)cc1 [Compound 6] |  |  | effect on L444P GC activity [1, 5]: do not increase L444P GC activity; toxicity to L444P fibroblasts [3]: toxic |
| O=[N+]([O-])c1cc2nc(O)c(O)nc2cc1[N+](=O)[O-] [DNQX] | only diltiazem and verapamil |  |  |
| Cc1cc(-c2ccc(/N=N/c3ccc4c(S(=O)(=O)O)cc(S(=O)(=O)O)c(N)c4c3O)c(C)c2)ccc1/N=N/c1ccc2c(S(=O)(=O)O)cc(S(=O)(=O)O)c(N)c2c1O [Evans blue] | only diltiazem and verapamil |  |  |
| COc1ccc(CCCOC(Cn2ccnc2)c2ccc(OC)cc2)cc1 (stereo not shown) [SKF 96365] | only diltiazem and verapamil |  |  |
| C=CCN=C=S [allylisothiocyanate] |  | Only ruthenium red notably increased |  |
| CCCCc1oc2ccccc2c1C(=O)c1cc(I)c(OCCN(CC)CC)c(I)c1 [amiodarone] | only diltiazem and verapamil |  |  |
| CCCCC/C=C\C/C=C\C/C=C\C/C=C\CCCC(=O)NCCO [anandamide] |  | Only ruthenium red notably increased |  |
| CC(C)COCC(CN(Cc1ccccc1)c1ccccc1)N1CCCC1 (stereo not shown) [bepridil] | only diltiazem and verapamil |  |  |
| CC12CCC(CC1=O)C2(C)C (stereo not shown) [camphor] |  | Only ruthenium red notably increased |  |
| COc1cc(CNC(=O)CCCC/C=C/C(C)C)ccc1O [capsaicin] |  | Only ruthenium red notably increased |  |

| Compound | L444P GC activity, screen of VGCC blockers, ionotropic glutamate receptor inhibitors and other calcium channel blockers [1] | L444P GC activity, screen of fifteen thermosensitive TRP channel modulators [1] | other results |
| --- | --- | --- | --- |
| Oc1cc2c(cc1O)CN(C(=S)NCCc1ccc(Cl)cc1)CCC2 [capsazepine] |  | Only ruthenium red notably increased |  |
| O=C/C=C/c1ccccc1 [cinnamaldehyde] |  | Only ruthenium red notably increased |  |
| COc1cc(/C=C/C(=O)CC(=O)/C=C/c2ccc(O)c(OC)c2)ccc1O [curcumin] |  |  | folding and trafficking of ΔF508 CFTR [4]: enhance folding and trafficking of ΔF508 CFTR |
| CCC1(C)CC(=O)NC1=O (stereo not shown) [ethosuximide] | only diltiazem and verapamil |  |  |
| CC12CCC(CC1)C(C)(C)O2 [eucalyptol] |  | Only ruthenium red notably increased |  |
| NC(=O)OCC(COC(N)=O)c1ccccc1 [felbamate] | only diltiazem and verapamil |  |  |
| Fc1ccc(C(c2ccc(F)cc2)N2CCN(C/C=C/c3ccccc3)CC2)cc1 [flunarizine] | only diltiazem and verapamil |  |  |
| O=C1NC(c2cccc([N+](=O)[O-])c2)=CCN1c1ccccc1O [icilin] |  | Only ruthenium red notably increased |  |
| CN(C)C(=O)C(CCN1CCC(O)(c2ccc(Cl)cc2)CC1)(c1ccccc1)c1ccccc1 [loperamide] | only diltiazem and verapamil |  |  |
| CC1CCC(C(C)C)C(O)C1 (stereo not shown) [menthol] |  | Only ruthenium red notably increased |  |
| COCC(=O)O[C@]1(CCN(C)CCCc2nc3ccccc3[nH]2)CCc2cc(F)ccc2[C@@H]1C(C)C [mibefradil] | only diltiazem and verapamil |  |  |
| COCCOC(=O)C1=C(C)NC(C)=C(C(=O)OC(C)C)C1c1cccc([N+](=O)[O-])c1 (stereo not shown) [nimodipine] | only diltiazem and verapamil |  |  |
| CCCCCCCC/C=C\CCCCCCCC(=O)NCc1ccc(O)c(OC)c1 [olvanil] |  | Only ruthenium red notably increased |  |
| O=C(/C=C/C=C/c1ccc2c(c1)OCO2)N1CCCCC1 [piperine] |  | Only ruthenium red notably increased |  |
| C=C(C)[C@]12C[C@@H](C)[C@@]34O[C@](Cc5ccccc5)(O[C@@H]1[C@@H]3C=C(COC(=O)Cc1ccc(O)c(OC)c1)C[C@]1(O)C(=O)C(C)=C[C@@H]41)O2 [resiniferatoxin] |  | Only ruthenium red notably increased |  |
| N.N.N.N.N.N.N.N.N.N.N.N.N.N.[Cl-].[Cl-].[Cl-].[Cl-].[Cl-].[Cl-].[O-2].[O-2].[Ru+3].[Ru+3].[Ru+4] [ruthenium red] |  | notably increased |  |
| C/C=C(/C)C(=O)O[C@H]1C(C)=C2[C@H]([C@@H]1OC(=O)CCCCCCC)[C@@](C)(OC(C)=O)C[C@H](OC(=O)CCC)[C@@]1(O)[C@H]2OC(=O)[C@@]1(C)O [thapsigargin] |  |  | L444P GC folding, trafficking, or lysosomal activity ([1]; Figure S4): does not enhance L444P GC folding, trafficking, or lysosomal activity; influence on L444P GC activity at higher concentration ([1]; alone, above 1 nM, 7-d incubation, Figure S4): decreased L444P GC activity significantly; influence on L444P GC activity at low concentration ([1]; alone, until 1 nM, 7 d, Figure S4): no influence on GC activity; L444P GC activity on co-application with diltiazem ([1]; varying concentrations with 10 μM diltiazem, 7 d, Figure S4): dose-dependent decrease of GC activity; folding and trafficking of ΔF508 CFTR [4]: enhance folding and trafficking of ΔF508 CFTR |
